Data: US7498336B2, “Deazaflavin compounds and methods of use thereof” (The United States of America as represented by the …, priority 2003, dated 2009)

Tests used:
[1] = tested on: Normal human fibroblast MRC-5; experiment: Cell based assay for accumulation of MDM2 and p53 (immunoblot); settings: MRC-5 cells, 50 μM, 8 hours
Method: Methods: Normal human fibroblast MRC-5 were chosen to determine whether the compounds from the high throughput screening can inhibit the E3 activity of Mdm2, i.e. stabilizing MDM2 and p53 in vivo. After being seeded in 12-well tissue culture cluster overnight, the cells were treated with 50 μM of the compounds for 8 hours. They were harvested with trypsin-EDTA, washed with PBS, and lysed with RIPA buffer. Following removal of insoluble pellet by centrifugation for 20 minutes at 10000 rpm, the lysate was separated on 4-20% gradient SDS-polyacrylamide gel and transferred onto nitrocellulose membrane. The membrane was then blotted with anti-p53 antibody (DO-1), anti-MDM2 antibodies (Ab-1 and Ab-2), anti-p27 (Santa Cruz), anti-Nedd4, and anti-p21Waf1 antibody. After extensive washing with PBS containing 0.5% Triton X-100, it was incubated with HRP-labeled donkey anti-mouse antibody and visualized using enhanced chemiluminescence.

[2] = tested on: E1A-transformed RPE cells; experiment: Apoptosis in E1A-transformed RPE cells; assay type: cell-based, human; settings: FIG. 4 left
Description: Cell-based assays include model systems where primary human epithelial cells (“normal cells”) are compared to the same cells expressing the adenovirus E1A oncogene (“transformed cells”). Activation of p53 was not toxic to normal cells, but activation of p53 in transformed cells induces p53-mediated apoptosis. High concentrations of wild type (wt) p53 protein can induce apoptosis in a variety of different tumor cells. Potential inhibitors of MDM2 would regulate the stability and function of p53 and MDM2. Preferably the assays measure number of cells undergoing apoptosis due to MDM2 induced p53 degradation in tumor cells in the presence or absence of candidate compounds as compared to normal cells in the presence or absence of candidate compounds. An increase in the number of these cells undergoing apoptosis in the presence of candidate compounds in tumor cells, as compared to normal untreated cells is indicative of a potential anti-tumor compound. […]
Apoptosis and cell death were determined by FACS analysis of sub-G1 nuclei or counting trypan blue-positive cells under microscope. Caspase activity was measured using fluorogenic substrate Ac-DEVD-AFC and CytoFluor multi-well plate reader (PerSeptive Biosystems). […]

Q: For `COc1cccc2c1C(=O)c1c(O)c3c(c(O)c1C2=O)C[C@@](O)(C(=O)CO)C[C@@H]3O[C@H]1C[C@H](N)[C@H](O)[C@H](C)O1` [adriamycin, reference compound], which p53 level [1] is on record?
A: increased only p53

Q: And the apoptosis [2]?
A: markedly increased apoptosis
